pIC50: −log10 of the molar value.
Columns and labels:
[1] = test system: Human immunodeficiency virus 1; experiment: Antiviral activity against BAL strain of HIV using HeLa cell anti-infectivity assay; assay type: functional; conditions: Human immunodeficiency virus 1, HeLa
[2] = molecular target: C-C chemokine receptor type 5 (Homo sapiens, UniProt P51681); experiment: Ability to displace [125I]-labeled MIP-1alpha from the C-C chemokine receptor type 5 expressed on CHO cell membranes
Sequence of C-C chemokine receptor type 5 (P51681 whole entry): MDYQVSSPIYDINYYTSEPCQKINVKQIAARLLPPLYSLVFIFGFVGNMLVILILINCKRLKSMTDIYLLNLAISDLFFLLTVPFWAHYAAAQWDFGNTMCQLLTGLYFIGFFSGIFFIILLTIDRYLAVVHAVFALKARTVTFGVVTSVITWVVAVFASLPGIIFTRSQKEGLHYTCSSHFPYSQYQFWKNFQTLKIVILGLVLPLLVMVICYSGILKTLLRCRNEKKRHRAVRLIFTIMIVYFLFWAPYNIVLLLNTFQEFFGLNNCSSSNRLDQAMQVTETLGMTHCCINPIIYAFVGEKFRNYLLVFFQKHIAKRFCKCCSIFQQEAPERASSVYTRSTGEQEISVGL

Structure (SMILES)	IC90 [1] [nM]	pIC50 [2]
C=CCN(C(=O)OCc1ccc([N+](=O)[O-])cc1)C1CCN(C[C@H]2CN3OC4(CCCCC4)C[C@H]3[C@@H]2c2ccccc2)CC1	33	9.89
C=CCN(C(=O)OCc1ccc([N+](=O)[O-])cc1)C1CCN(C[C@@H]2[C@@H](c3ccccc3)CN3OC4(CCCCC4)C[C@@H]23)CC1		7.85
CCN(C(=O)OCc1ccccc1)C1CCN(C[C@@H]2[C@@H](c3ccccc3)CN3O[C@H](c4ccccc4)C[C@@H]23)CC1		7.34
c1ccc(CCCC2CCN(C[C@H]3CN4O[C@H](c5ccccc5)C[C@H]4[C@@H]3c3ccccc3)CC2)cc1	> 300	8.30
CCN(C(=O)OCc1ccccc1)C1CCN(C[C@@H]2[C@@H](c3ccccc3)CN3OC4(CCCCC4)C[C@@H]23)CC1		7.07
c1ccc(C2CCN(C[C@@H]3[C@@H](c4ccccc4)CN4O[C@H](c5ccccc5)C[C@@H]34)CC2)cc1		7.52
c1ccc(C2CCN(C[C@H]3CN4OC5(CCCCC5)C[C@H]4[C@@H]3c3ccccc3)CC2)cc1		7.37
CCN(C(=O)OCc1ccccc1)C1CCN(C[C@H]2CN3OC4(CCCCC4)C[C@H]3[C@@H]2c2ccccc2)CC1	> 300	8.30

Now from value to compound:

IC90 [1] [nM]	pIC50 [2]	Structure (SMILES)
> 300	8.22	C=CCN(C(=O)OCc1ccc([N+](=O)[O-])cc1)C1CCN(C[C@@H]2[C@@H](c3ccccc3)CN3O[C@H](c4ccccc4)C[C@@H]23)CC1
> 300	8.10	c1ccc(CCCC2CCN(C[C@H]3CN4OC5(CCCCC5)C[C@H]4[C@@H]3c3ccccc3)CC2)cc1
	7.57	c1ccc(C2CCN(C[C@H]3CN4O[C@H](c5ccccc5)C[C@H]4[C@@H]3c3ccccc3)CC2)cc1
4		C=CCN(C(=O)OCc1ccc([N+](=O)[O-])cc1)C1CCN(C[C@H]2CN(C(=O)C3CCCCC3)C[C@@H]2c2ccccc2)CC1
	7.96	c1ccc(CCCC2CCN(C[C@@H]3[C@@H](c4ccccc4)CN4O[C@H](c5ccccc5)C[C@@H]34)CC2)cc1
	~7.57	CCN(C(=O)OCc1ccccc1)C1CCN(C[C@H]2CN3O[C@H](c4ccccc4)C[C@H]3[C@@H]2c2ccccc2)CC1
300	8.60	C=CCN(C(=O)OCc1ccc([N+](=O)[O-])cc1)C1CCN(C[C@H]2CN3O[C@H](c4ccccc4)C[C@H]3[C@@H]2c2ccccc2)CC1
	7.48	c1ccc(C2CCN(C[C@@H]3[C@@H](c4ccccc4)CN4OC5(CCCCC5)C[C@@H]34)CC2)cc1

Reference: ChEMBL document CHEMBL1135079, “CCR5 antagonists: bicyclic isoxazolidines as conformationally constrained N-1-substituted pyrrolidines” (Bioorg Med Chem Lett, 2002)
